# According to ChEMBL document CHEMBL1201862, “PubChem BioAssay data set” (2004):
# The source made the active and inactive calls.
# Legend:
# [1] = growth suppression of PTEN-null colon cells, dose response, cell-based, HCT116 PTEN knockout (AID 1047); format: functional;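 note: HCT116 colon tumor cells with PTEN knocked out; cells exposed to compound for 60 hours before readout; potency for loss of cell viability measured by luminescence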
# [2] = target: T1, Rac GTPase-activating protein 1 (Homo sapiens, UniProt Q9H0H5); test: MgcRacGAP GTPase-activating activity inhibitors, confirmation, biochemical, ADP Hunter fluorescence, primary and confirmatory (AID 624330); format: functional
# T1 sequence (Q9H0H5 whole entry): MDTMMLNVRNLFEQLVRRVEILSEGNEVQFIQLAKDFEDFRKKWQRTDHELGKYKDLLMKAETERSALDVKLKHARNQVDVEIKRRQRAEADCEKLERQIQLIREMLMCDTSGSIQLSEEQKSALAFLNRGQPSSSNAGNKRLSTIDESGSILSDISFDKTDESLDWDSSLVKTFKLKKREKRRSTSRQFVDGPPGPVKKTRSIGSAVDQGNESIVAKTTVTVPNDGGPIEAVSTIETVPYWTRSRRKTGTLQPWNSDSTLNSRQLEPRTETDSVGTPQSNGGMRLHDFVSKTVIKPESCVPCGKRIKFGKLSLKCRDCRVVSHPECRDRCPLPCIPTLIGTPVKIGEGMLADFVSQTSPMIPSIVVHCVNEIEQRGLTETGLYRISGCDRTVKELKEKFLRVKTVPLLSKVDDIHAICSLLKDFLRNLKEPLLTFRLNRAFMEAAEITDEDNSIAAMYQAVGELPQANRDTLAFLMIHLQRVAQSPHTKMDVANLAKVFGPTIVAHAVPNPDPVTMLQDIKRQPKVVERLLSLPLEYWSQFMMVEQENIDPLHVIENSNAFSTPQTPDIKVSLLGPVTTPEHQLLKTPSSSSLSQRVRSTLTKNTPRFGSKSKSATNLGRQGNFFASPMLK
# [3] = target: T2, Protein RecA (Mycobacterium tuberculosis, UniProt P9WHJ3); test: Fluorescence Cell-Free Homogeneous Dose Retest to Identify Inhibitors of RecA-Intein Splicing Activity. [Related pubchem assays (depositor defined):AID2097, AID2223, AID489010, AID492950]; format: functional
# T2 sequence (P9WHJ3 whole entry): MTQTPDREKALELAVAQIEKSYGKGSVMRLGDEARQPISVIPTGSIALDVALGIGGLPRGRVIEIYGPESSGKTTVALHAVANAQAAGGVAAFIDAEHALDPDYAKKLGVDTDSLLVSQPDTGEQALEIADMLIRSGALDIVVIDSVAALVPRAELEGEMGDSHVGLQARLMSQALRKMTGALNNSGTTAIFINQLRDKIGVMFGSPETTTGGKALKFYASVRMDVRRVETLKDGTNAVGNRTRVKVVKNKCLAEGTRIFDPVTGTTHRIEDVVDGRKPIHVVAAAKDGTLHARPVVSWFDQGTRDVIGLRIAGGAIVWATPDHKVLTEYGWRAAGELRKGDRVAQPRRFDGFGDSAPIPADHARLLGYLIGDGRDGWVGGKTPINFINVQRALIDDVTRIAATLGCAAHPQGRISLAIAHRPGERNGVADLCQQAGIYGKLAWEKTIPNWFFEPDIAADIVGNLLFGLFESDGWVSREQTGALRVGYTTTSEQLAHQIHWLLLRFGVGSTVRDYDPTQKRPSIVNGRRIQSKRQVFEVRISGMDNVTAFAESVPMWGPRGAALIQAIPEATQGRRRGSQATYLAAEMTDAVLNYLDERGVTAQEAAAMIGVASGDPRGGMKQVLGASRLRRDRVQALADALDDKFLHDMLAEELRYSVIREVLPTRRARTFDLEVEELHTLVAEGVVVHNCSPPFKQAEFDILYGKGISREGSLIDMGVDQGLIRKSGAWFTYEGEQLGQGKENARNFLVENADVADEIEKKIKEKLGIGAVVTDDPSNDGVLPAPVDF
# [4] = target: T3, Replicative DNA helicase DnaB (Mycobacterium tuberculosis, UniProt P9WMR3); test: DnaB intein splicing inhibitors, dose response, biochemical, cell-free fluorescence (AID 449749); format: functional
# T3 sequence (P9WMR3 whole entry): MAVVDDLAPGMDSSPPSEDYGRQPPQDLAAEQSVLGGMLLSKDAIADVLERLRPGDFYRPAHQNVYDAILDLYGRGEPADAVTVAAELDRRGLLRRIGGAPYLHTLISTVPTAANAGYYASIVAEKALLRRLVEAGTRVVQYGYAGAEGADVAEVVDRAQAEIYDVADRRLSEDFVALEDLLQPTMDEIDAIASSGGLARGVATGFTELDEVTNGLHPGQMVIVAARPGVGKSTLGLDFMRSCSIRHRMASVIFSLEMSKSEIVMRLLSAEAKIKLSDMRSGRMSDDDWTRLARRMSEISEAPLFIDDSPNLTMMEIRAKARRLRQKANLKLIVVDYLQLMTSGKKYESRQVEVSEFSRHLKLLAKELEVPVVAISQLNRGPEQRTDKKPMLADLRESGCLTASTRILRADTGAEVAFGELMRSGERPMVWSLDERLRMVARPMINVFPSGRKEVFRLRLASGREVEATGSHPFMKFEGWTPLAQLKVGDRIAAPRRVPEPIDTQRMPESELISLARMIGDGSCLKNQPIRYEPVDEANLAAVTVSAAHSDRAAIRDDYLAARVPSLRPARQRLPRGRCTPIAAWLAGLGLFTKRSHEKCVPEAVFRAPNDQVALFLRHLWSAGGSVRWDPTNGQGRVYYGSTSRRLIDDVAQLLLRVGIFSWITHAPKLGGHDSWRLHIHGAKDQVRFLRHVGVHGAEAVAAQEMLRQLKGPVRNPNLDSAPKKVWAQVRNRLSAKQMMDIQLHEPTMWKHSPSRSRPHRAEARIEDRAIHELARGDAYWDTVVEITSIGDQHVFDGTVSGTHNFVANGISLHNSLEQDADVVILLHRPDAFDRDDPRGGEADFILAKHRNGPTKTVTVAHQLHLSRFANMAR
# [5] = system: INS1; test: beta cell apoptosis inhibitors, cytokine rescue, dose response, luminescence, retest (AID 449756); format: functional, cell-based; details: Rattus norvegicus;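 note: cell death triggered by IL-1 beta plus TNF-alpha plus IFN-gamma mixture; protective hits raise ATP signal compared with cytokine alone wells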
# [6] = target: T4, Corticotropin-releasing factor receptor 2/Corticotropin-releasing factor-binding protein (Homo sapiens, UniProt P24387+Q13324); test: Dose Response confirmation of uHTS hits for small molecule antagonists of the CRF-binding protein and CRF-R2 receptor complex.; format: functional; details: read-out: IC50_Mean
# T4 sequence (Q13324 whole entry): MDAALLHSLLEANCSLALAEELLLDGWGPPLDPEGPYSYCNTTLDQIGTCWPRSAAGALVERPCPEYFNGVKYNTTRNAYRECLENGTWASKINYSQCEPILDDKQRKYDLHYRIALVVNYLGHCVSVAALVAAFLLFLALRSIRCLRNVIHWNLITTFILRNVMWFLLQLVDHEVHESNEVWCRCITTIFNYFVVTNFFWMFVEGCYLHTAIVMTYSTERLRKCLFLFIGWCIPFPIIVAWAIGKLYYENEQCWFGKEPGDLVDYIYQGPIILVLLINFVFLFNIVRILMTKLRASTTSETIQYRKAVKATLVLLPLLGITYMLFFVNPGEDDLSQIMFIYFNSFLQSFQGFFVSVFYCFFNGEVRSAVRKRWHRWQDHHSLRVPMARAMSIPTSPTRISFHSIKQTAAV
# T4 sequence (P24387 whole entry): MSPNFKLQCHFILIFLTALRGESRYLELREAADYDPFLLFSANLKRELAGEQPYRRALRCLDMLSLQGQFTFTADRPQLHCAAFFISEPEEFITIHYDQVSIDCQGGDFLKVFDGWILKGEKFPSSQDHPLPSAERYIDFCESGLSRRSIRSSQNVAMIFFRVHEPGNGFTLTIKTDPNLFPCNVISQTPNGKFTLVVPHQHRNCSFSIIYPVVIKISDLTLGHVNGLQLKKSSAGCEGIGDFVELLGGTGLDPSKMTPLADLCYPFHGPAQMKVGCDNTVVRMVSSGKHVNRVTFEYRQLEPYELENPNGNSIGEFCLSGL
# [7] = target: T4, Corticotropin-releasing factor receptor 2/Corticotropin-releasing factor-binding protein; test: activators of CRF receptor 2 with binding protein – uHTS hits, confirmation (AID 602473); format: functional; details: read-out: EC50_Mean
# [8] = system: Streptococcus; test: Group A Streptococcus viability loss, dose response, counter-screen for streptokinase expression inhibitor project, luminescence, BacTiterGlo (AID 1915); format: functional, organism-based;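 note: potency for reduction of bacterial viability or growth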
# [9] = system: Streptococcus sp. 'group A'; test: growth inhibition of control SK(-) GAS strain, dose response, counter-screen for streptokinase expression inhibitor project, luminescence, kanamycin, BacTiterGlo, confirmation (AID 1900); format: functional, organism-based
# [10] = Luminescence Cell-Based Dose Response HTS to Identify Activators of Luciferase Translation or Activity in H4 […] Cells. [Related pubchem assays: 1829 (Project Summary), 1814 (Primary HTS)]; format: functional
# [11] = system: H4; test: Luminescence Cell-Based Dose Response HTS to Identify Activators of 5'UTR Stem-Loop Driven Prion Protein mRNA Translation in H4 Neuroglioblastoma Cells. [Related pubchem assays: 1829 (Project Summary), 1814 (Primary HTS)]; format: functional; details: Homo sapiens
structure (smiles),measurement,setting,value
Cc1n[nH]c2c1C(C1CC=CCC1)C(C#N)=C(N)O2 (stereo not drawn),EC50,[1],34.7 µM (active)
COc1cc(CN2CCN(C(=O)CC(C)C)CC2)cc(OC)c1O,IC50,[2],78.6 µM (active)
O=C1/C(=C/c2cccc([N+](=O)[O-])c2)CCc2ccccc21,EC50,[3],13.3 µM (active)
same,AC50,[4],8.57 µM (active)
COc1ccc(N2CC2c2ccncc2)cc1 (stereo not drawn),IC50,[2],144 µM (active)
Cc1ccc(-c2nn(-c3ccccc3)cc2/C=N/NC(=O)c2ccc3c(c2)OCO3)cc1,AC50,[5],5.54 µM (active)
O=C(Nc1ccccc1SCC1CSc2nc3ccccc3c(=O)n21)c1ccccc1 (stereo not drawn),IC50,[6],> 47.1 µM (inactive)
same,EC50,[7],> 53 µM (inactive)
COc1cc(C(C(=O)NC2CCCCC2)N(CCN2CCOCC2)C(=O)C2COc3ccccc3O2)cc(OC)c1OC (stereo not drawn),EC50,[3],> 380 µM (inactive)
same,AC50,[4],> 380 µM (inactive)
CCOC(=O)c1c(CCl)nc2ccccc2c1-c1ccccc1,EC50,[3],12.6 µM (active)
same,AC50,[4],9.56 µM (active)
Cc1ccc(CCNC(=O)C2CCC(=O)N2C2CCCC2)cc1 (stereo not drawn),IC50,[6],> 47.1 µM (inactive)
same,EC50,[7],> 53 µM (inactive)
Cc1ccccc1OCC(=O)OCC(=O)c1c[nH]c2ccccc12,IC50,[6],> 47.1 µM (inactive)
same,EC50,[7],> 53 µM (inactive)
O=C(CNc1ccc(F)cc1)N/N=C/c1c(O)ccc2ccccc12,AC50,[5],2.94 µM (active)
same,EC50,[8],1.67 µM (active)
same,EC50,[9],0.846 µM (active)
Cc1csc(NC(=O)c2nc3nccc(C)n3n2)n1,EC50,[10],36.1 µM (active)
same,EC50,[11],37.4 µM (active)
COc1cccc(C2CCCN2Cc2nc(-c3cnccn3)no2)c1 (stereo not drawn),IC50,[6],> 47.1 µM (inactive)
same,EC50,[7],> 53 µM (inactive)
